Three molecules from patent US5665736A, “N-benzoylmethyl-piperidines” (priority 1995, dated 1997) can be followed below.

Where a name gives a salt, the structure may show the parent alone.

In the series the test system is mice. The series is described as follows: Irwin test in mice, oral administration. It is filed as in vivo. The source says: These findings are most important, since the safety range of the compounds of this invention makes them be highly useful for their clinical application.

As to `O=C(CN1CC[C@@H](c2ccc(F)cc2)[C@H](COc2ccc3c(c2)OCO3)C1)c1ccc(F)cc1` [Example 1, (-)-Trans-N-p-fluorobenzoylmethyl-4-(p-fluorophenyl)-3-[[3,4-(methylenedioxy)phenoxy]methyl]-piperidine hydrochloride], the “signs of toxicity, Irwin test” value (600 mg/kg) is recorded as “did not show any sign of toxicity”. For the molecule `O=C(CN1CC[C@@H](c2ccc(F)cc2)[C@H](COc2ccc3c(c2)OCO3)C1)c1ccc(Cl)cc1` [Example 2, (-)-Trans-N-p-chlorobenzoylmethyl-4-(p-fluorophenyl)-3-[[3,4-(methylenedioxy)phenoxy]methyl]-piperidine hydrochloride], the “signs of toxicity, Irwin test” value (800 mg/kg) is given as “merely the onset of manifestations of hyperactivity was observed”. `Fc1ccc([C@@H]2CCNC[C@H]2COc2ccc3c(c2)OCO3)cc1` [Paroxetine, (-)-trans-4-(p-fluorophenyl)-3-[[3,4-(methylenedioxy)phenoxy]methyl]-piperidine, reference compound]: the “signs of toxicity, Irwin test” value (400 mg/kg) is “convulsions, mydriasis and Straub tail”.
